# Assays:
# [1] = system: MyD88; test: FBG stimulation of RA synovial fibroblasts infected with adenovirus expressing dominant negative MyD88; format: cell-based, human; settings: 1 μM FBG
# Excerpt: Recombinant, replication-deficient adenoviral vectors encoding wild type MyD88 (AdMyD88wt), dominant-negative forms of MyD88 (AdMyD88dn) and the GFP control (AdGFP) were constructed in-house. A description of the synthesis of these viruses is in Andreakos (2004). All viruses used in this study are E1/E3 deleted, belong to the Ad5 serotype. Viruses were propagated in 293 human embryonic kidney cells, purified by ultracentrifugation through two cesium chloride gradients, and viral titers determined by plaque assay as previously described (Sacre (2007)).
# For adenoviral gene transfer experiments, human RA synovial fibroblasts were incubated with adenoviral vectors at a multiplicity of infection of 100, washed after 2 hours, cultured in complete medium for 24 hours, then stimulated for 24 hours, after which time supernatants were collected.
# (§1) Supernatants were subsequently examined for the presence of the cytokines TNF-α, IL-6, and IL-8 by enzyme-linked immunosorbent assay (ELISA) according to the manufacturer's instructions. Absorbance was read on a spectrophotometric ELISA plate reader (Labsystems Multiscan Biochromic, Vantaa, Finland) and analyzed using the Ascent software program (Thermo Labsystems, Altrincham, UK).
# [2] = system: synovial membranes from RA patients; test: Cytokine synthesis in RA synovial membrane cells stimulated with FBG; format: cell-based, human; settings: FBG 1.0-0.01 μM, 24 h
# Excerpt: (§2) RA membrane cells (representing a mixed population of all synovial cell types) were isolated from synovial membranes obtained from patients undergoing joint replacement surgery as previously described (Brennan (1989)). RA synovial fibroblasts were isolated from the mixed population of RA membrane cells as previously described (Brennan (1989)). The study was approved by the local Trust ethics committee (Riverside NHS Research Committee), and waste tissue (synovium after joint replacement surgery) was obtained only after receiving signed informed consent from the patient and anonymyzing the tissue to protect patient identity.
# Immediately after isolation, RA membrane cells and macrophages were cultured at 1×10^5 cells/well in RPMI 1640 containing 10% (v/v) FBS and 100 U/ml (Units/ml) penicillin/streptomycin in 96-well tissue culture plates for 24 hours before stimulation. […]
# as §1
# [3] = system: TLR4; test: Cytokine synthesis in embryonic fibroblasts or macrophages from TLR4 deficient mice; format: cell-based
# Protocol: (§3) MEFs express high levels of mRNA of all 9 murine TLRs and are specifically and highly responsive to TLR ligand activation. […] MEFs were isolated from d13 embryos harvested from age-matched, pregnant female wild type, TLR2, TLR4 and null mice (as described in Todaro (1963)). Fibroblasts were cultured at 2×10^4 cells/well in DMEM containing 10% (v/v) FBS and 100 U/ml penicillin/streptomycin in 96-well tissue culture plates for 24 hours before stimulation.
# (§4) BMDMs were derived by aspirating the femurs of age matched female wild type, TLR2 and TLR4 null mice as described in Butler (1999)) and culturing the cells for 7 days in DMEM, 20% (v/v) FBS, 10 ml/L (v/v) antibiotic-antimycotic solution PSA, 50 μM β-Mercaptoethanol and 10 ng/ml M-CSF. Macrophages were then cultured at 1×10^5 cells/well in DMEM, 20% (v/v) FBS, 10 ml/L (v/v) antibiotic-antimycotic solution PSA, 50 μM β-Mercaptoethanol in 96-well tissue culture plates for 24 hours before stimulation.
# (§5) Cells were incubated for 24 hours at 37° C. with the indicated doses of tenascin-C and recombinant tenascin-C fragments (1.0 μM-1.0 nM). Cells were also stimulated where indicated with LPS (1 ng/ml for human macrophages, 10 ng/ml for human fibroblasts, RA membrane cells and HEKs, 100 ng/ml for MEFS and BMDMs and 10 ng/ml for HEKS), PAM3 (10 ng/ml for human macrophages, human fibroblasts, and HEKs, 100 ng/ml for MEFs and BMDMs), murine IL-1 (5 ng/ml for MEFS) and murine TNF-α (100 ng/ml for MEFS). Unless specifically stated otherwise rough LPS was used for in vitro studies.
# as §1
# [4] = system: TLR2; test: Cytokine synthesis in embryonic fibroblasts or macrophages from TLR2 deficient mice; format: cell-based
# Protocol: as §3, §4, §5, §1
# [5] = system: primary human macrophages; test: Cytokine synthesis in primary human macrophages stimulated with tenascin-C or its domains; format: cell-based
# Protocol: Human monocytes were isolated from peripheral blood (London Blood Bank) and macrophages were derived from monocytes after differentiation for 4 days with 100 ng/ml of M-CSF as previously described (Foxwell (1998)).
# (§6) Immediately after isolation, RA membrane cells and macrophages were cultured at 1×10^5 cells/well in RPMI 1640 containing 10% (v/v) FBS and 100 U/ml (Units/ml) penicillin/streptomycin in 96-well tissue culture plates for 24 hours before stimulation. Synovial fibroblasts (used only at either passage number 2 or 3) were cultured at 1×10^4 cells/well in DMEM containing 10% (v/v) FBS and 100 U/ml penicillin/streptomycin in 96-well tissue culture plates for 24 hours before stimulation.
# as §5
# Where stated, cells were pre-incubated with 10 μg/ml anti-CD14 antibody, 10 μg/ml IL1 receptor antagonist, 10 μg/ml anti-TLR2 antibody, 25 μg/ml anti-TLR4 antibody, 10 or 25 μg/ml isotype control antibody, 25 μg/ml polymyxin B, or 1 μg/ml msbB LPS, for 30 minutes at 37° C. before stimulation. Where stated, recombinant tenascin-C and FBG, and LPS were boiled for 15 minutes before addition to cells
# as §1
# [6] = system: RA synovial fibroblasts; test: Cytokine synthesis in RA synovial fibroblasts stimulated with tenascin-C, FBG or LPS; format: cell-based, human; settings: RA synovial fibroblasts, 24 h
# Excerpt: as §2, §6, §5, §1
# [7] = system: human dermal fibroblasts (HDF); test: Cell adhesion to coated FBG, human dermal fibroblasts; format: cell-based; settings: coated wells, 45 minutes, crystal violet
# Protocol: (A) The sequence identified to bind integrin ≢vβ3 is shown in white (Yokoyama et al., 2000). Within this sequence two Arginines (shown in black) were identified to be citrullinated. (B) Wells of a 96 well plate were coated with different concentrations of FBG, citrullinated FBG (cFBG), FBG incubated in buffer without Calcium (FBG —Ca^2+), or FBG incubated without PAD (FBG -PAD). As a positive control wells were coated with Fibronectin (FN) (1 ug/ml), and coating with BSA (10 mg/ml) served as negative control. Plates were incubated with human dermal fibroblasts (HDF) or synovial fibroblasts from RA patients (RAF) for 45 minutes and adhesion was measured by determining absorbance of attached cells after staining with crystal violet (0.1%). Data are shown as the mean of at least four independent experiments+s.e.m., *=p<0.05, **=p<0.01.
substance,measurement,setting,value
"FBG: recombinant fibrinogen-like globe, 227 amino acid globular domain at the C terminal of tenascin-C",FBG induction of IL-6,[1],abolished
same,"synthesis of IL-6, IL-8 and TNF-α",[2],further enhanced
same,cytokine synthesis,[3],does not stimulate cytokine synthesis
same,cytokine synthesis,[4],unaffected
same,heat and polymyxin B sensitivity of cytokine stimulation,"[5]; boiled 15 min, 25 μg/ml polymyxin B pre-incubation",heat sensitive and unaffected by polymyxin B
same,"production of TNF-α, IL-6 and IL-8","[5]; human macrophages, 24 h, 1.0 μM-1.0 nM",to an equal extent to full-length tenascin-C
same,IL-6 synthesis,[6],to an equal extent to full-length tenascin-C
same,IL-8 synthesis,[6],did not induce
same,adhesion of human dermal fibroblasts (HDF),[7],proadhesive
